What all share (assay): NCI tumour cell line growth inhibition, 48 h
Experiment [1] concerns NCI-H460 lung.
In experiment [2] the test system is HCT-116 colon.
In experiment [3] the test system is HL-60(TB) leukemia.
For experiment [4], the system named is U251 CNS.
The test system of experiment [5] is SN12C renal.
For experiment [6], the system named is NCI-H522 lung.
Experiment [7] relates to HS 578T breast.
For experiment [8], the system named is KM12 colon.
In experiment [9] the test system is OVCAR-8 ovarian.
For experiment [10], the system named is PC-3 prostate.

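Method: 48-hour compound exposure of cells in 96-well plates, five concentrations, linear interpolation of endpoints. TGI denotes the concentration required for complete inhibition of growth.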

For the compound `COc1ccc(NC=O)c(C(O)CCNC(C)=O)c1` (configuration not stated), the TGI in experiment [1], in [2], in experiment [3], in experiment [4], in [5] and in experiment [6] was > 100 µM throughout. Moreover, the TGI in [7], in experiment [8], in experiment [9] and in experiment [10] was > 100 µM each time.
On to `O=C1C(NCCc2cc(Br)c(O)c(Br)c2)=CC(=O)c2ncccc21`, for which the TGI in [1] was found to be 5.41 µM; in experiment [2], 12.4 µM; in experiment [3] it was 12.7 µM; in experiment [4], 33 µM; in [5] it was 14.7 µM; in experiment [6] it was 12.1 µM. Also, the TGI in experiment [7] was 9.2 µM; in experiment [8] it was 20.1 µM; in experiment [9], 32.7 µM; in experiment [10], > 100 µM.
For `Nc1ncc2c(n1)-c1ccccc1OC2NC1CC1` (configuration not stated), the TGI in [1], in [2], in [3], in experiment [4], in [5] and in [6] was > 100 µM each time. The TGI in experiment [7], in [8], in experiment [9] and in [10] was > 100 µM each time.
In the case of `CC(=O)Nc1c(C)cc(OCC(=O)O)cc1C`, the TGI in experiment [1], in [2], in [3], in experiment [4], in [5] and in experiment [6] was > 100 µM each time. Besides, the TGI in [7], in [8], in [9] and in experiment [10] was > 100 µM each time.
`CC(C)=CCC/C(C)=C/Cc1cc(/C=C/c2cc(O)c(CC=C(C)C)c(O)c2)cc(O)c1O`: the TGI was found to be 9.2 µM in experiment [1]; 11.9 µM in [2]; 2.79 µM in experiment [3]; 5 µM in [4]; 3.95 µM in experiment [5]; 0.38 µM in [6]. Further, the TGI in [7] came out at 26.8 µM; in experiment [8], 14.7 µM; in experiment [9], 14.9 µM; in experiment [10] it was 11.9 µM.
On to `CCC(=O)N(c1ccccc1)C(C)CN1CCC(O)(c2ccccc2)CC1` (configuration not stated), for which the TGI in experiment [2], in experiment [3], in experiment [4], in experiment [5], in experiment [6] and in [7] was > 100 µM in each case. The TGI in experiment [9] and in experiment [10] was > 100 µM in each case.
Turning to `CN(C)c1ccc(C(C#N)N2CCCN(C(C#N)c3ccc(N(C)C)cc3)C2c2ccc(N(C)C)cc2)cc1` (configuration not stated), the TGI in [2], in experiment [3], in [4], in experiment [5], in experiment [6] and in [7] was > 100 µM throughout. Also, the TGI in experiment [8], in [9] and in experiment [10] was > 100 µM throughout.
In the case of `CCOC(=O)CNC(=O)C(CSC(=O)N(O)c1ccc(Br)cc1)NC(=O)CCC(N)C(=O)OCC` (configuration not stated), the TGI in [1] was > 50 µM; in [2], > 50 µM; in experiment [3] it was 0.00622 µM; in experiment [4] it was > 50 µM; in experiment [5], > 50 µM; in [6], > 50 µM. The TGI in experiment [7], in experiment [8], in experiment [9] and in experiment [10] was > 50 µM in each case.
In the case of `CCOP(=O)(CS(C)=O)O[C@@H]1C[C@H](C)CC[C@H]1C(C)C` (some centres not stated), the TGI in experiment [1] was 17.6 µM; in experiment [2] it was > 23.9 µM; in [3], > 36.4 µM; in [4] it was 16.1 µM; in experiment [5] it was 6.12 µM; in experiment [6], 6.19 µM. Besides, the TGI was 11.3 µM in experiment [7], > 28.7 µM in experiment [8], 17.4 µM in [9] and 19.7 µM in experiment [10].
As for `Fc1ccc(C(OCCN2CCC3CCC(C2)N3CCCc2ccccc2)c2ccc(F)cc2)cc1` (configuration not stated), the TGI in experiment [1] turned out to be 7.51 µM; in [2], 10.6 µM; in experiment [3], 5.21 µM; in experiment [4] it was 15.1 µM; in experiment [5], 12.7 µM; in experiment [6] it was 12.1 µM. In addition, the TGI came to 19.7 µM in experiment [7], 11.3 µM in experiment [8], 4.93 µM in [9] and 11.4 µM in experiment [10].
Take `CC(=O)c1c2c(cc3c1CC1(Cc4cc5c(cc4C1)CCC5)C3)CCC2`: the TGI in experiment [1], in experiment [2], in experiment [3], in experiment [4], in experiment [6] and in experiment [7] was > 100 µM each time. The TGI in experiment [9] and in experiment [10] was > 100 µM each time.
Consider `COc1ccccc1NC(=O)C(C#N)=C(SC)SC`, for which the TGI in experiment [1], in experiment [2], in [3], in experiment [4], in experiment [5] and in experiment [6] was > 100 µM each time. Further, the TGI in experiment [7], in [8] and in [10] was > 100 µM in each case.
On to `COc1ccc(CSCc2cc(OC)c(OC)c(OC)c2)cc1`, for which the TGI in [1] is > 100 µM; in experiment [2] it was > 31.6 µM; in experiment [3], > 100 µM; in [4], > 100 µM; in experiment [5] it was > 100 µM; in [6], > 100 µM. The TGI is > 100 µM in experiment [7], > 100 µM in [8], > 31.6 µM in [9] and > 31.6 µM in [10].
Turning to `O=C(O)CCC(=O)Nc1ccc2c(c1)S(=O)(=O)N(CC(=O)O)C2=O`, the TGI in experiment [1], in experiment [2], in experiment [3], in experiment [4], in experiment [5] and in experiment [6] was > 100 µM throughout. For the same compound, the TGI in experiment [7], in experiment [8], in [9] and in experiment [10] was > 100 µM in each case.
On to `O=C(CNC(=O)OCc1ccccc1)NCCCCC(NC(=O)OCc1ccccc1)C(=O)O` (configuration not stated), for which the TGI in experiment [1], in experiment [2], in experiment [3], in experiment [4], in experiment [5] and in experiment [6] was > 100 µM throughout. For the same compound, the TGI in [7], in [8], in experiment [9] and in experiment [10] was > 100 µM each time.
Regarding `N#Cc1c(-c2ccccc2)c(C#N)c(=O)n(NS(=O)(=O)c2ccccc2)c1O`, the TGI in experiment [1], in experiment [2], in [3], in experiment [4], in experiment [5] and in experiment [6] was > 100 µM throughout. Besides, the TGI in experiment [7], in experiment [8], in experiment [9] and in [10] was > 100 µM throughout.
`CCOc1ccc(C2c3[nH]c4ccccc4c3CCN2C(=O)c2cccs2)cc1` (configuration not stated): the TGI is 32.8 µM in experiment [1]; > 100 µM in experiment [2]; > 100 µM in experiment [3]; > 100 µM in experiment [4]; > 100 µM in experiment [5]; > 100 µM in experiment [6]. Also, the TGI in [7], in [8], in experiment [9] and in [10] was > 100 µM in each case.
Regarding `CSc1nc(=S)[nH]c2n[nH]c(C)c12`, the TGI in experiment [1], in [2], in [3], in experiment [4], in [5] and in experiment [6] was > 100 µM each time. Also, the TGI in experiment [7], in experiment [8], in experiment [9] and in experiment [10] was > 100 µM each time.
As for `CC[C@@]1(O)C(=O)OCc2c1c(Cl)c1n(c2=O)Cc2cc3ccccc3nc2-1`, the TGI was 4.25 µM in [1]; 8.76 µM in experiment [2]; > 26.3 µM in [3]; 11.5 µM in experiment [4]; > 61.8 µM in [5]; 20.8 µM in [6]. Also, the TGI was > 100 µM in [7], > 95.5 µM in experiment [8], 22.9 µM in experiment [9] and > 100 µM in experiment [10].
Turning to `COc1c(O)cc(/C=C/c2cc(O)cc3c2[C@@]2(C(=O)O3)c3c(O)cc(O)cc3OC2c2cccc(O)c2)cc1O` (some centres not stated), the TGI in experiment [1] was 31.9 µM; in experiment [2], > 100 µM; in experiment [3] it was 69.1 µM; in experiment [4], > 100 µM; in experiment [5], 64.3 µM; in experiment [6], > 100 µM. Also, the TGI in experiment [7], in [8], in [9] and in experiment [10] was > 100 µM each time.
For `Oc1ccccc1C=Nc1ccc(Oc2ccc(Cl)cc2)c(Cl)c1`, the TGI in [1] was 54.5 µM; in [2], 40.1 µM; in experiment [3], 65.4 µM; in experiment [4], 50.5 µM; in [5] it was 41.4 µM; in experiment [6] it was 31.6 µM. The TGI stood at 52.5 µM in [7], 65.1 µM in [8], 57.9 µM in experiment [9] and 53.6 µM in experiment [10].
For the compound `N#Cc1cnn2c1n[n+]([O-])c1ccc(Cl)cc12`, the TGI was found to be 26.5 µM in experiment [1]; 22.7 µM in [2]; 6.52 µM in experiment [3]; 32.8 µM in experiment [4]; 20.7 µM in experiment [5]; 3.81 µM in [6]. Further, the TGI in [7] was > 24.7 µM; in [8], > 100 µM; in experiment [9], > 42.9 µM; in experiment [10] it was 32.1 µM.
In the case of `CCn1c(=O)c2c(=O)[nH][nH]c2c2ccccc21`, the TGI in experiment [1], in experiment [2], in experiment [3], in experiment [4], in experiment [5] and in experiment [6] was > 100 µM throughout. The TGI in [7], in experiment [8], in experiment [9] and in experiment [10] was > 100 µM each time.
As to `CCOC(=O)CCc1c(C(=O)OCC)[nH]c(/C=C2/NC(=O)C(C)=C2CC)c1C`, the TGI in [1] is > 100 µM; in experiment [2], 28.1 µM; in experiment [3], 25.7 µM; in [4], 24.1 µM; in [5], 37.9 µM; in [6], 31.8 µM. In addition, the TGI in experiment [7] is 95.3 µM; in experiment [8], 23.9 µM; in experiment [9] it was > 100 µM; in [10] it was > 100 µM.
On to `CN(CCO)CC(=O)CC(O)(C(F)(F)F)C(F)(F)F`, for which the TGI in experiment [1] was > 100 µM; in experiment [2] it was > 100 µM; in [3], 73.5 µM; in [4], > 100 µM; in experiment [6], > 100 µM; in experiment [7], 58.7 µM. Also, the results for the TGI in experiment [8], in experiment [9] and in [10] were > 100 µM, > 100 µM and 82.8 µM, respectively.
On to `CCCCCCN(C(=O)Oc1ccccc1)C(C#N)c1ccccc1` (configuration not stated), for which the TGI in experiment [2], in experiment [3], in [4], in experiment [5], in experiment [6] and in [7] was > 100 µM throughout. For the same compound, the TGI in experiment [8], in experiment [9] and in experiment [10] was > 100 µM each time.
`CC1C2CC(C(C3C(=O)C4CC3C(C)(C)C4C)C2=O)C1(C)C` (configuration not stated): the TGI in experiment [1], in experiment [2], in [3], in experiment [4], in experiment [5] and in [6] was > 100 µM throughout. The TGI in [7], in experiment [8], in [9] and in experiment [10] was > 100 µM in each case.
On to `N#C/C(=C\c1ccc(Cl)cc1)c1nc2ccccc2c(=O)[nH]1`, for which the TGI in experiment [1], in experiment [2], in experiment [3], in [4], in experiment [5] and in experiment [6] was > 100 µM in each case. In addition, the TGI in experiment [7] was 60.6 µM; in experiment [8], > 100 µM; in [9], > 100 µM; in experiment [10], > 100 µM.

The values above are taken from PubChem BioAssay (NCI).
